From patent publication EP0105692B1, “6-H-dibenz(b,e)(1,4)oxathiepin derivatives and their preparation” (MERCK FROSST CANADA INC., priority 1982, dated 1984) come the findings set out here.

The term ED50 denotes the dose at which the effect has come halfway, by size or by number of responders. Higher therefore signals a need for a large dose.

Test [1] relates to arachidonic acid induced bronchoconstriction. Description: Arachidonic acid induced bronchoconstriction and hypotension in the anaesthetized dog. It counts as in vivo. Particulars: intraduodenal administration.
Test [2] has as its system PGEA-induced bronchoconstriction (R2). Description: Inhibition of PGEA-induced bronchoconstriction in the guinea pig in vivo. Particulars: Cavia porcellus, IV injection.

Regarding `O=S1(=O)c2ccccc2COc2ccc(CO)cc21` [Example 13, 2-Hydroxymethy!-6H-dibenz[b,e][1,4]oxathiepin-11,11-dioxide], in test [1], the “inhibition of arachidonic acid induced bronchoconstriction” value is listed as “inhibited” and the “inhibition of arachidonic acid induced hypotension” value is on record as “not”. The molecule also came in with an ED50 in test [2] of 10.5 mg/kg.
